The record followed here is ChEMBL document CHEMBL1777763, “Discovery of a nortropanol derivative as a potent and orally active GPR119 agonist for type 2 diabetes” (Bioorg Med Chem Lett, 2011).

Molecules are shown by their SMILES.

For series [1], the target named is T1, Glucose-dependent insulinotropic receptor (Mus musculus, UniProt Q7TQP3).
T1 sequence (Q7TQP3 whole entry): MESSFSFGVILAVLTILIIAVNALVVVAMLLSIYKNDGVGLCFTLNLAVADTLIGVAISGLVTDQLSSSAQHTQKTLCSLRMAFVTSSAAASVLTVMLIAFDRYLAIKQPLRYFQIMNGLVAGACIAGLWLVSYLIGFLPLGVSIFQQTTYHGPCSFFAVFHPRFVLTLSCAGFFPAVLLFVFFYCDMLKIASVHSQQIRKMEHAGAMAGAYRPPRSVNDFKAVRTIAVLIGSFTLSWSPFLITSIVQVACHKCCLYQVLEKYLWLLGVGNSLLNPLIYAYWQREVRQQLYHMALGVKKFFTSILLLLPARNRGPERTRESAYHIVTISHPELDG
The experiment in a line: Agonist activity at mouse GPR119 expressed in HEK293 cells assessed as stimulation of cMAP level by cell-based cAMP assay. Format: functional. For orientation: Cyclic AMP is a second messenger, typically raised through Gs and lowered through Gi signalling.

In series [2] the target is T2, Glucose-dependent insulinotropic receptor (Mus musculus) (UniProt Q7TQP3).
T2 sequence (whole entry): T1 sequence (Q7TQP3 whole entry)
The experiment in a line: Agonist activity at mouse GPR119 expressed in HEK293 cells assessed as maximal stimulation of cMAP level by cell-based cAMP assay relative to 21. In kind it is functional.

The test system of series [3] is Mus musculus. The experiment in a line: Antidiabetic activity in overnight fasted mouse model assessed as blood glucose level at 3 mg/kg, po followed by 30 mins after administered 3 g/kg, po glucose by oral glucose tolerance test (reference value: 100 %). Format: functional.
The nature of series [4]: Plasma concentration in mouse at 3 mg/kg, po after 1 hr. Further details: dose 3 mg/kg, route oral. Format: ADME, organism-based.
The test system of a further series is Rattus norvegicus. The experiment in a line: AUC (0 to 6 hrs) in rat at 10 mg/kg, po. In kind it is ADME, organism-based, Plasma. More on the design: time < 6 hr, dose 10 mg/kg, route oral. Conditions: in vivo.
In series [5] the test system is Mus musculus. The experiment in a line: Antidiabetic activity in laen mouse model assessed as reduction in blood glucose level at 30 mg/kg, po up to 60 mins by oral glucose tolerance test. Conditions: 1 h. Format: functional.
The nature of series [6]: Plasma concentration in lean mouse at 30 mg/kg, po after 60 mins. In kind it is ADME, organism-based. More on the design: dose 30 mg/kg, route oral.

The term EC50 denotes the concentration at which the effect is half-maximal. In general, AUC refers to the area under the concentration-time curve, a measure of exposure. Read a high AUC as high exposure. The inhibition in vivo is the drop in the measured response relative to a control, in per cent.

`CCCCS(=O)(=O)N1C2CC[C@H]1C[C@@H](Oc1ncnc(Oc3cccnc3C)c1C)C2` (single isomer, unassigned): in series [1], the EC50 was 26 nM. Further, the Activity in series [2] is 29%.

With `Cc1ncccc1Oc1ncnc(O[C@H]2CC3CC[C@@H](C2)N3S(=O)(=O)c2ccc(F)cc2)c1C` (single isomer, unassigned), the EC50 in series [1] is 350 nM. Moreover, the Activity in series [2] was 78%.

With `Cc1ncccc1Oc1ncnc(O[C@H]2CC3CC[C@@H](C2)N3S(=O)(=O)c2ccc(Cl)s2)c1C` (single isomer, unassigned), the EC50 in series [1] was found to be 145 nM. For the same molecule, the Activity in series [2] was 77%.

For the molecule `Cc1c(Nc2ccccc2C#N)ncnc1O[C@H]1CC2CC[C@@H](C1)N2S(=O)(=O)C1CC1` (single isomer, unassigned), the EC50 in series [1] came to 180 nM. Further, the Activity in series [2] amounted to 80%.

As to `Cc1ncccc1Oc1ncnc(O[C@H]2C[C@@H]3CC(F)[C@@H](C2)N3S(=O)(=O)C2CC2)c1C` (stereo not given in full), the EC50 in series [1] was found to be 710 nM. Moreover, the Activity in series [2] was 74%.

As to `CCCS(=O)(=O)N1C2CC[C@H]1C[C@@H](Oc1ncnc(Oc3cccnc3C)c1C)C2` (single isomer, unassigned), in series [1], the EC50 is 53 nM. In addition, in series [2], the Activity stood at 49%.

In the case of `Cc1ncccc1Oc1ncnc(O[C@H]2CC3CC[C@@H](C2)N3C(=O)OC2(C)CC2)c1C` (single isomer, unassigned), the EC50 in series [1] is above 30000 nM. In series [2], the Activity came to 12%. For the same molecule, the “Blood glucose (% of vehicle)” value in the series on Mus musculus [3] came to 95%. The same molecule had a concentration at 1 h in series [4] of 130 nM. In the series with Rattus norvegicus, this molecule returned an AUC of 2.84 µM·h.

For `Cc1c(Oc2ccccc2C#N)ncnc1O[C@H]1CC2CC[C@@H](C1)N2S(=O)(=O)C1CC1` (single isomer, unassigned), in series [1], the EC50 is 68 nM. Besides, in series [2], the Activity is 74%. The “Blood glucose (% of vehicle)” value in the series on Mus musculus [3] came out at 88%. In series [4], the concentration at 1 h is 290 nM. In the series on Rattus norvegicus, this molecule had an AUC of 0.461 µM·h.

As for `Cc1ncccc1Oc1ncnc(O[C@H]2CC3CC[C@@H](C2)N3C(=O)OCC2CC2)c1C` (single isomer, unassigned), the EC50 in series [1] was 7570 nM. For the same molecule, the Activity in series [2] came to 33%.

Take `Cc1c(Oc2ccc(Cl)cc2C#N)ncnc1O[C@H]1CC2CC[C@@H](C1)N2S(=O)(=O)C1CC1` (single isomer, unassigned): the EC50 in series [1] came to 290 nM. In addition, the Activity in series [2] amounted to 44%.

As to `Cc1ncccc1Oc1ncnc(O[C@H]2C[C@@H]3CC(F)(F)[C@@H](C2)N3S(=O)(=O)C2CC2)c1C`, the EC50 in series [1] turned out to be 220 nM. The Activity in series [2] is 52%.

As for `Cc1c(Nc2ccc(C#N)cc2F)ncnc1O[C@H]1CC2CC[C@@H](C1)N2S(=O)(=O)C1CC1` (single isomer, unassigned), in series [1], the EC50 was found to be 220 nM. Besides, the Activity in series [2] was 84%. Moreover, in the series with Mus musculus [3], the “Blood glucose (% of vehicle)” value is reported as 95%.

As for `Cc1ncccc1Oc1ncnc(O[C@H]2CC3CC[C@@H](C2)N3S(=O)(=O)CCC(F)(F)F)c1C` (single isomer, unassigned), the EC50 in series [1] is 250 nM. Besides, in series [2], the Activity stood at 62%.

`Cc1ncccc1Oc1ncnc(O[C@H]2C[C@H]3CC[C@@H](C2)N3C(=O)OC(C)C2CC2)c1C` (stereo not given in full): the EC50 in series [1] came to 59 nM. Also, the Activity in series [2] was found to be 31%.

For the molecule `Cc1ncccc1Oc1ncnc(O[C@H]2CC3CC[C@@H](C2)N3S(=O)(=O)C2CC2)c1C` (single isomer, unassigned), the EC50 in series [1] was found to be 63 nM. In addition, in series [2], the Activity was 76%. For the same molecule, the “Blood glucose (% of vehicle)” value with Mus musculus [3] came to 87%. Besides, the concentration at 1 h in series [4] is 2330 nM. The same molecule came in with an AUC in the series on Rattus norvegicus of 0.879 µM·h.

As for `Cc1ncccc1Oc1ncnc(O[C@H]2CC3C=C[C@@H](C2)N3C(=O)OC(C)C)c1C` (single isomer, unassigned), the EC50 in series [1] is 52 nM. The Activity in series [2] came to 48%.

For the molecule `Cc1ncccc1Oc1ncnc(O[C@@H]2CC3CC[C@@H](C2)N3C(=O)OC(C)(C)C)c1C` (single isomer, unassigned; 20f), the EC50 in series [1] was 300 nM. For the same molecule, in series [2], the Activity was determined as 20%.

With `Cc1ncccc1Nc1ncnc(O[C@H]2CC3CC[C@@H](C2)N3S(=O)(=O)C2CC2)c1C` (single isomer, unassigned), the EC50 in series [1] came out at 2000 nM. Besides, the Activity in series [2] was found to be 110%.

Consider `Cc1ncccc1Oc1ncnc(O[C@H]2CC3CC[C@@H](C2)N3S(=O)(=O)CC(F)(F)F)c1C` (single isomer, unassigned), for which, in series [1], the EC50 stood at 660 nM. In series [2], the Activity worked out at 62%.

For `Cc1ncccc1Oc1ncnc(O[C@H]2CC3CC[C@@H](C2)N3S(=O)(=O)CC(C)C)c1C` (single isomer, unassigned), the EC50 in series [1] was 70 nM. Further, the Activity in series [2] came out at 69%. The AUC in the series on Rattus norvegicus was 0 µM·h.

For the molecule `Cc1c(Nc2ccc(S(C)(=O)=O)cc2F)ncnc1O[C@H]1CC2CC[C@@H](C1)N2S(=O)(=O)C1CC1` (single isomer, unassigned), the EC50 in series [1] worked out at 640 nM. Besides, the Activity in series [2] was 88%.

In the case of `Cc1ncccc1Oc1ncnc(O[C@H]2CC3CC[C@@H](C2)N3C(=O)OCC(F)(F)F)c1C` (single isomer, unassigned), in series [1], the EC50 was 10400 nM. In addition, the Activity in series [2] amounted to 20%.

Consider `CC(C)OC(=O)N1CCC(Oc2cc(Oc3ccc(S(C)(=O)=O)cc3F)ncn2)CC1`, for which the concentration for a half-maximal effect (EC50) in series [1] is 403 nM. Also, in series [2], the Activity is 100%. Besides, the “Blood glucose (% of vehicle)” value in the series with Mus musculus [3] was found to be 78%. Besides, the concentration at 1 h in series [4] amounted to 480 nM; in series [6], 12700 nM. The same molecule yielded an AUC in the series on Rattus norvegicus of 20.7 µM·h. In addition, the inhibition in vivo at 30 mg/kg in the series with Mus musculus [5] is 47%.

As for `CCOC(=O)N1C2CC[C@H]1C[C@@H](Oc1ncnc(Oc3cccnc3C)c1C)C2` (single isomer, unassigned), in series [1], the EC50 was determined as 324 nM. For the same molecule, the Activity in series [2] is 25%.

As for `Cc1c(Oc2ccccc2Cl)ncnc1O[C@H]1CC2CC[C@@H](C1)N2S(=O)(=O)C1CC1` (single isomer, unassigned), in series [1], the EC50 came out at 82 nM. The Activity in series [2] stood at 58%.

As to `Cc1c(Nc2ccc(F)cc2C#N)ncnc1O[C@H]1CC2CC[C@@H](C1)N2S(=O)(=O)C1CC1` (single isomer, unassigned), in series [1], the EC50 is 820 nM. Further, the Activity in series [2] was found to be 110%.

Take `Cc1ncccc1Oc1ncnc(O[C@H]2CC3CC[C@@H](C2)N3C(=O)OC(C)C)c1C` (single isomer, unassigned): the EC50 in series [1] is 55 nM. Further, the Activity in series [2] turned out to be 20%. The “Blood glucose (% of vehicle)” value in the series on Mus musculus [3] is reported as 100%. In series [4], this molecule displayed a concentration at 1 h of 193 nM. The same molecule displayed an AUC in the series with Rattus norvegicus of 0.175 µM·h.

As to `Cc1ncccc1Oc1ncnc(O[C@H]2CC3C=C[C@@H](C2)N3S(=O)(=O)C2CC2)c1C` (single isomer, unassigned), in series [1], the concentration for a half-maximal effect (EC50) was found to be 240 nM. The Activity in series [2] amounted to 78%.
